Results reported in the NIST ThermoML archive (doi:10.1021/je500381c).

Test: xn = mol fraction of the nth substance listed
Conditions: for mass density / viscosity: 100 kPa, Liquid; for mass density: Vibrating tube method; for surface tension liquid-gas: Drop volume

CCC12CC3CC(CC(C3)C1)C2 [1-ethyladamantane] + OCC1CCCCC1
Conditions | mass density, 293.15 K [kg/m3] | mass density, 298.15 K [kg/m3] | mass density, 303.15 K [kg/m3] | mass density, 308.15 K [kg/m3] | mass density, 313.15 K [kg/m3] | surface tension liquid-gas, 298.15 K [mN/m] | viscosity, 293.15 K [mPa·s] | viscosity, 298.15 K [mPa·s] | viscosity, 303.15 K [mPa·s] | viscosity, 308.15 K [mPa·s]
x2 = 0 | 937.11 | 933.58 | 929.99 | 926.4 | 922.81 | 29.87 | 6.371 | 5.565 | 4.903 | 4.348
x2 = 0.1 | 936.13 | 932.5 | 928.84 | 925.16 | 921.48 | 30.21 | 6.695 | 5.776 | 5.033 | 4.417
x2 = 0.2002 | 935.23 | 931.58 | 927.89 | 924.2 | 920.49 | 30.84 | 7.433 | 6.348 | 5.484 | 4.772
x2 = 0.2997 | 934.37 | 930.72 | 927.06 | 923.39 | 919.69 | 30.99 | 8.368 | 7.083 | 6.058 | 5.224
x2 = 0.3999 | 933.76 | 930.09 | 926.4 | 922.68 | 918.95 | 31.23 | 9.674 | 8.081 | 6.832 | 5.833
x2 = 0.4998 | 933.1 | 929.43 | 925.74 | 922.03 | – | 31.51 | 11.54 | 9.483 | 7.675 | 6.657
x2 = 0.5989 | 932.54 | 928.87 | 925.17 | 921.45 | – | 31.86 | 14.09 | 11.38 | 9.337 | 7.748
x2 = 0.7001 | 931.93 | 928.31 | 924.63 | 920.92 | – | 31.98 | 17.67 | 14.04 | 11.31 | 9.236
x2 = 0.8023 | 931.24 | 927.68 | 924.04 | 920.38 | – | 32.1 | 23.66 | 18.53 | 14.75 | 11.88
x2 = 0.8996 | 930.57 | 927 | 923.4 | 919.77 | – | 32.21 | 29.61 | 22.86 | 18.07 | 14.39
